Laboratory results: ChEMBL document CHEMBL6115002, “Discovery of novel sitolactone derivative leading to PANoptosis and differentiation of acute myeloid leukemia cells” (Eur J Med Chem, 2025)
pIC50: −log10 of the molar value.

How the values were obtained:
Format in all cases: functional, cell-based
[1] = Antiproliferative activity against mouse WEHI-3 cells assessed as inhibition cell proliferation incubated for 72 hrs by MTT assay; conditions: WEHI-3, 72 h
[2] = system: Kasumi 1; assay: Antiproliferative activity against human Kasumi 1 cells assessed as inhibition cell proliferation incubated for 72 hrs by MTT assay; conditions: Kasumi 1, 72 h
[3] = system: MV4-11; assay: Antiproliferative activity against human MV4-11 cells assessed as inhibition cell proliferation incubated for 72 hrs by MTT assay; conditions: MV4-11, 72 h

SMILES | pIC50 [3] | pIC50 [1] | pIC50 [2]
C=C1C[C@@H]2[C@@H](CC[C@]3(C)[C@@H](OS(=O)(=O)c4ccc(OC)cc4)CC[C@@H]23)OC1=O | 4.84 | 5.03 | 5.08
C=C1C[C@@H]2[C@@H](CC[C@]3(C)[C@@H](OS(=O)(=O)c4ccc(C)cc4)CC[C@@H]23)OC1=O | 5.02 | 5.03 | 5.08
C=C1C[C@@H]2[C@@H](CC[C@]3(C)[C@@H](OC(=O)c4ccc(-c5ccccc5)cc4)CC[C@@H]23)OC1=O | 4.70 | 4.85 | 4.74
C=C1C[C@@H]2[C@@H](CC[C@]3(C)[C@@H](OC(c4ccccc4)c4ccccc4)CC[C@@H]23)OC1=O | 5.33 | 5.45 | 5.54
C=C1C[C@@H]2[C@@H](CC[C@]3(C)[C@@H](OS(=O)(=O)c4ccc(C#N)cc4)CC[C@@H]23)OC1=O | 5.04 | 5.12 | 5.05
C=C1C[C@@H]2[C@@H](CC[C@]3(C)[C@@H](OC(=O)c4ccccc4)CC[C@@H]23)OC1=O | 4.80 | 4.99 | 4.73
C=C1C[C@@H]2[C@@H](CC[C@]3(C)[C@@H](OC(=O)c4ccc(F)cc4)CC[C@@H]23)OC1=O | 4.87 | 5.20 | 4.98
C=C1C[C@@H]2[C@@H](CC[C@]3(C)[C@@H](OS(=O)(=O)Cc4ccccc4)CC[C@@H]23)OC1=O | < 4.70 | 4.73 | 4.81
C=C1C[C@@H]2[C@@H](CC[C@]3(C)[C@@H](OS(=O)(=O)c4cccnc4)CC[C@@H]23)OC1=O | < 4.70 | 4.88 | 4.96
C=C1C[C@@H]2[C@@H](CC[C@]3(C)[C@@H](O[Si](C)(C)CCCCCCCCCCCCCCCCCC)CC[C@@H]23)OC1=O | 5.05 | 5.20 | 5.23
C=C1C[C@@H]2[C@@H](CC[C@]3(C)[C@@H](OS(=O)(=O)CCCCCCC)CC[C@@H]23)OC1=O | < 4.70 | < 4.70 | < 4.70
C=C1C[C@@H]2[C@@H](CC[C@]3(C)[C@@H](OS(=O)(=O)C[C@]45CC[C@](C)(C(=O)C4)C5(C)C)CC[C@@H]23)OC1=O | 4.91 | 5.08 | 5.01

Continued, in another order:

pIC50 [3] | SMILES | pIC50 [1] | pIC50 [2]
< 4.70 | C=C[Si](C)(C)O[C@H]1CC[C@H]2[C@@H]3CC(=C)C(=O)O[C@@H]3CC[C@]12C | < 4.70 | < 4.70
4.98 | C=C1C[C@@H]2[C@@H](CC[C@]3(C)[C@@H](O[Si](C)(C)C4CCCCC4)CC[C@@H]23)OC1=O | 5.10 | 5.03
5.34 | C=C1C[C@@H]2[C@@H](CC[C@]3(C)[C@@H](O[Si](CC)(CC)CC)CC[C@@H]23)OC1=O | 5.67 | 5.53
< 4.70 | C=C1C[C@@H]2[C@@H](CC[C@]3(C)[C@@H](OC(=O)C4CC4)CC[C@@H]23)OC1=O | < 4.70 | < 4.70
< 4.70 | C=C[Si](C)(O[C@H]1CC[C@H]2[C@@H]3CC(=C)C(=O)O[C@@H]3CC[C@]12C)c1ccccc1 (stereo partly drawn) | 4.81 | 4.79
< 4.70 | CC(C)[Si](O[C@H]1CC[C@H]2[C@@H]3CCC(=O)O[C@@H]3CC[C@]12C)(C(C)C)C(C)C | < 4.70 | < 4.70
< 4.70 | C=C1C[C@@H]2[C@@H](CC[C@]3(C)[C@@H](OC(=O)C4CCCC4)CC[C@@H]23)OC1=O | 4.81 | < 4.70
< 4.00 | C[C@]12CC[C@H]3OC(=O)CC[C@H]3[C@@H]1CCC2=O | < 4.00 | < 4.00
4.80 | C=C1C[C@@H]2[C@@H](CC[C@]3(C)[C@@H](OS(=O)(=O)c4c(C)noc4C)CC[C@@H]23)OC1=O | 4.88 | 4.85
